Results on three compounds are retold here after patent publication US4510150A, “Pharmaceutical compositions effective against coronary heart disease and hypertension” (Sandoz Ltd., priority 1980, dated 1985).

One assay deals with β-adrenoceptor. Kind of assay: adequacy of betablockade checked with isoproterenol test dose in the anaesthetized open chest cat. In kind it is in vivo. The note with it: LT 50 μg/kg i.v.; isoproterenol 0.05 μg/kg before, 0.1 μg/kg after betablockade. On the procedure: Cats of 2 to 4 kg of body weight were anaesthetized with chloralose urethane (43 and 430 mg/kg) and ventilated with a Loosco M.K.II infant ventilator with positive end-expiratory pressure. Catheters were inserted into the femoral artery and vein. The thorax was opened through the left fourth intercostal space, the aorta was freed of its adventitia and an electromagnetic flow probe was placed around it. The electromagnetic flow signal and its first derivative, acceleration of the blood in the aorta, mean aortic flow, phasic and mean aortic blood pressure, heart rate and mean right atrial pressure were recorded on a Beckmann R612 8 channel recorder. For flow measurements a Narco RT500 flowmeter was used. Differentiation was performed by a HSE 401 differentiator. The flow signal, which is a measurement of the velocity of blood in the aortic root was electronically integrated to obtain mean aortic flow. At the same time this signal was fed into the differentiator mentioned. The output of the differentiator, acceleration of blood in the aorta, is an indicator of myocardial function and was used instead of dp/dt (R. R. Rushmer, Circulation 29 [1964] 268, G. C. Van den Bos et al., Cardiovascular Research 7 [1973] 834), applied to cats by R. P. Hof and A. Hof, Journal of Pharmacological Methods, accepted for publication in 1981. […] The samples were counted in a Packard Mod. […]

Assay [1] concerns paced guinea pig left atrium. Kind of assay: contractility of paced guinea pig left atria in vitro. The class given is cell-based. To be noted: for difference between cardiodepressant concentration and the pA2 of Ca-antagonism: guinea pig atria concentration vs dog coronary artery pA2. On the procedure: (§1) Then the effects on contractility of paced guinea pig left […] in vitro was measured:
(§2) Guinea pigs of either sex weighing 250 to 400 g were killed by a blow on their heads and the left atrium was rapidly dissected from the heart and suspended in a modified oxygenated Tyrode solution at 30° C. The preload was adjusted to 1 g, rectangular impulses of 10 msec. at a rate of 1 Hz were used for pacing through a platinum cathode attached to the lower end of the tissue. The tension developed was measured isometrically with a Statham UC 3 transducer.

Assay [2] addresses T1, calcium-induced contraction of isolated dog coronary arteries (Canis lupus familiaris, UniProt A0A8I3QY31).
T1 construct: Branches of the ventral interventricular artery (about 500 to 1000 μm outer diameter) were dissected and cut into helical strips; from tissue; host or cells: helical strips of branches of the ventral interventricular (coronary) artery of mongrel dogs
Kind of assay: calcium antagonism: calcium-induced contraction of isolated dog coronary arteries in depolarizing solution. The note with it: helical strips of dog coronary artery, 100 mM KCl solution, cumulative CaCl2 response curves, drug added 30 min before CaCl2; read-out: pA2 of calcium antagonism (converted). In kind it is cell-based. As for the experimental part: First the potency of calcium antagonism was determined on coronary arteries in vitro:
Mongrel dogs of either sex weighing between 15 and 30 kg were anaesthetized by rapid i.v. injection of pentobarbitone (50 mg/kg) and killed by i.v. injection of 100 ml of air. The heart was removed and placed in a modified Krebs-Henseleit solution (mM): NaCl 118, KCl 4.7, MgSo4 1.2, CaCl2 2.5, KH2 PO4 1.2, NaHCO3 25, glucose 11, at 37° C., gassed with 95% O2 -5% CO2. Branches of the ventral interventricular artery (about 500 to 1000 μm outer diameter) were dissected and cut into helical strips, approximately 1 to 3 mm wide and 10 mm long.
The strips were suspended in 10 ml organ baths containing Krebs-Henseleit solution at 37° C. gassed continuously with 5% CO2 in oxygen. Changes in the tension of the strips were recorded isometrically with electromechanical transducers (Statham model UC 3) and a potentiometric recorder. At the beginning of the experiments the strips were stretched to an initial tension of 500 mg and then allowed to equilibrate for 120 to 180 minutes in the bathing medium. Thereafter the Krebs-Henseleit solution was replaced by a solution containing 100 mM KCl in equimolar replacement for NaCl. Cumulative response curves for CaCl2 were established, using the method described by Van Rossum, J. M., Arch. […] The effects were expressed as percentage of the preceding response to […]. […]

The test system of assay [3] is anaesthetized open chest cat. Kind of assay: hemodynamics in the anaesthetized open chest cat (microsphere method). In kind it is in vivo.
Procedure: This observation was arrived at in the anaesthetized open chest cat as follows:
The microsphere method as described in 1967 by Rudolph, A. M. and Heymann, M. S. in Circ. Res. 21 (1967) 163 and modified by R. P. Hof, F. Wyler and G. Stalder, Basic Res. Cardial. 75, 747-756 (1980) was used. Cardiac output was calculated from the flow signal of an electromagnetic flow meter. […] This consists in sampling blood at a known flow rate into a syringe, which can be regarded as "an external organ".
This sampling is done during the time of microsphere circulation. The number of microspheres in the syringe is then determined and cardiac output can be calculated as follows:
where CO is cardiac output, Qs is flow to the syringe, Ni is the number of spheres injected and Ns is the number of spheres in the syringe.
Cats of 2 to 4 kg of body weight were anaesthetized with chloralose urethane (43 and 430 mg/kg) and ventilated with a Loosco M.K.II infant ventilator with positive end-expiratory pressure. Catheters were inserted into the femoral artery and vein. […] The electromagnetic flow signal and its first derivative, acceleration of the blood in the aorta, mean aortic flow, phasic and mean aortic blood pressure, heart rate and mean right atrial pressure were recorded on a Beckmann R612 8 channel recorder. […] The samples were counted in a Packard Mod. […]
For assay [4], the target named is T2, paced guinea pig left atrium (Cavia porcellus, UniProt O35505).
T2 construct: the left atrium was rapidly dissected from the heart and suspended in a modified oxygenated Tyrode solution; from tissue; host or cells: isolated left atrium of guinea pig
T2 sequence (O35505 whole entry): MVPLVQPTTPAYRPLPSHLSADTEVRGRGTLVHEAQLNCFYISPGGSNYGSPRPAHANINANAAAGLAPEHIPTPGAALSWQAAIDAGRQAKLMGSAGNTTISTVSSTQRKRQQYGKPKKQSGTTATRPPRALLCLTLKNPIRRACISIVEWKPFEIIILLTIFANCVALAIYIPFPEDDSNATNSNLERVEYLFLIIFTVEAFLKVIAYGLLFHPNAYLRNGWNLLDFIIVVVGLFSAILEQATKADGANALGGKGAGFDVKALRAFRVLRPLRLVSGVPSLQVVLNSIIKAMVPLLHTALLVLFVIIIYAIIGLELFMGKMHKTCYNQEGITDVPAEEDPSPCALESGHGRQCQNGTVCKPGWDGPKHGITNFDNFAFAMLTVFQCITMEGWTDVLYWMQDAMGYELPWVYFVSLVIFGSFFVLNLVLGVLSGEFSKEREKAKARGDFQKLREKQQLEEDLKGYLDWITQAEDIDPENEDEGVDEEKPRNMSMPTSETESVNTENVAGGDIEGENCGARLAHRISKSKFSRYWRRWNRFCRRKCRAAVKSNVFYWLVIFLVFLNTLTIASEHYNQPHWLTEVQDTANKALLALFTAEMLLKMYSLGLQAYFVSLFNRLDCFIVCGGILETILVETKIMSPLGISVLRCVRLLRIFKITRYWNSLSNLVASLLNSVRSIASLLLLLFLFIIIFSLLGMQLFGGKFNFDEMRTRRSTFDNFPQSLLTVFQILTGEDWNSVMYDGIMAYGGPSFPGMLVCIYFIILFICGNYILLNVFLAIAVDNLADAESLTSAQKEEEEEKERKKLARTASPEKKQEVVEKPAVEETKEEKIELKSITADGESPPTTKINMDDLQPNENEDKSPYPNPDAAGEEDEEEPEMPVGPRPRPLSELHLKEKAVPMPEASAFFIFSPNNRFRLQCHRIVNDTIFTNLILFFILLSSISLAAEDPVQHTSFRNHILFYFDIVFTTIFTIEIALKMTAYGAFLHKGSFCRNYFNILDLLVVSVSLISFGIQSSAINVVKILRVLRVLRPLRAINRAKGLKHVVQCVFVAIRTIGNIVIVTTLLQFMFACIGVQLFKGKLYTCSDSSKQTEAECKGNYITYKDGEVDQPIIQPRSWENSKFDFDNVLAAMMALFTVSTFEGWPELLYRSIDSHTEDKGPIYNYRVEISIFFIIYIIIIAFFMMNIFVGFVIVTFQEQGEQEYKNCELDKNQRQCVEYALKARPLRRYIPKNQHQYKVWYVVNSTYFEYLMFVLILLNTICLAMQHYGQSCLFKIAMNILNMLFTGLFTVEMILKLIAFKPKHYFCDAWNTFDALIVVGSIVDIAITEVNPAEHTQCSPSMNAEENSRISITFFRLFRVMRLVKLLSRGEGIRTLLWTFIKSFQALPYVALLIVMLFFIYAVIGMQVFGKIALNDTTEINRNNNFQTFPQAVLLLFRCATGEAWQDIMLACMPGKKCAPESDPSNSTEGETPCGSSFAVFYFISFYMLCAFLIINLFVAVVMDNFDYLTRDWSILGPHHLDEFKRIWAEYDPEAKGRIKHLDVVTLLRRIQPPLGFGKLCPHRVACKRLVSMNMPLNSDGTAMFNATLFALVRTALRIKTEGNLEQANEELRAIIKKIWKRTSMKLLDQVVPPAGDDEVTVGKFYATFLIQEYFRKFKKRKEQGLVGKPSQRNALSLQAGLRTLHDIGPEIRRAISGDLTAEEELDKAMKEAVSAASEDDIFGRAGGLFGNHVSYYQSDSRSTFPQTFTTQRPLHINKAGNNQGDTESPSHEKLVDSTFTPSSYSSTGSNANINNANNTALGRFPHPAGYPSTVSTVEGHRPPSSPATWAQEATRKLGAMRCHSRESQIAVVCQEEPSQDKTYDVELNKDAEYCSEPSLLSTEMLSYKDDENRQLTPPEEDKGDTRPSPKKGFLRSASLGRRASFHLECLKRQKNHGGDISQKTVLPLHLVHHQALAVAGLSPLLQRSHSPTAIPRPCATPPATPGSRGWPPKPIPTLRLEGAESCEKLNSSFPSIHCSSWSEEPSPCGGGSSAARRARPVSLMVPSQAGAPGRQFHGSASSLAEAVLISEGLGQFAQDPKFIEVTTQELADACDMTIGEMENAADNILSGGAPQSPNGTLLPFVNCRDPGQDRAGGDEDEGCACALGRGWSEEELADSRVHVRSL
Kind of assay: contractility of paced guinea pig left atria in vitro. In kind it is cell-based. The note with it: guinea pig; highest dose 0.444 μM; paced 1 Hz, 30° C.; read-out: contractile force, % of its baseline value. On the procedure: as §1, §2

T1 sequence (A0A8I3QY31 1-2188): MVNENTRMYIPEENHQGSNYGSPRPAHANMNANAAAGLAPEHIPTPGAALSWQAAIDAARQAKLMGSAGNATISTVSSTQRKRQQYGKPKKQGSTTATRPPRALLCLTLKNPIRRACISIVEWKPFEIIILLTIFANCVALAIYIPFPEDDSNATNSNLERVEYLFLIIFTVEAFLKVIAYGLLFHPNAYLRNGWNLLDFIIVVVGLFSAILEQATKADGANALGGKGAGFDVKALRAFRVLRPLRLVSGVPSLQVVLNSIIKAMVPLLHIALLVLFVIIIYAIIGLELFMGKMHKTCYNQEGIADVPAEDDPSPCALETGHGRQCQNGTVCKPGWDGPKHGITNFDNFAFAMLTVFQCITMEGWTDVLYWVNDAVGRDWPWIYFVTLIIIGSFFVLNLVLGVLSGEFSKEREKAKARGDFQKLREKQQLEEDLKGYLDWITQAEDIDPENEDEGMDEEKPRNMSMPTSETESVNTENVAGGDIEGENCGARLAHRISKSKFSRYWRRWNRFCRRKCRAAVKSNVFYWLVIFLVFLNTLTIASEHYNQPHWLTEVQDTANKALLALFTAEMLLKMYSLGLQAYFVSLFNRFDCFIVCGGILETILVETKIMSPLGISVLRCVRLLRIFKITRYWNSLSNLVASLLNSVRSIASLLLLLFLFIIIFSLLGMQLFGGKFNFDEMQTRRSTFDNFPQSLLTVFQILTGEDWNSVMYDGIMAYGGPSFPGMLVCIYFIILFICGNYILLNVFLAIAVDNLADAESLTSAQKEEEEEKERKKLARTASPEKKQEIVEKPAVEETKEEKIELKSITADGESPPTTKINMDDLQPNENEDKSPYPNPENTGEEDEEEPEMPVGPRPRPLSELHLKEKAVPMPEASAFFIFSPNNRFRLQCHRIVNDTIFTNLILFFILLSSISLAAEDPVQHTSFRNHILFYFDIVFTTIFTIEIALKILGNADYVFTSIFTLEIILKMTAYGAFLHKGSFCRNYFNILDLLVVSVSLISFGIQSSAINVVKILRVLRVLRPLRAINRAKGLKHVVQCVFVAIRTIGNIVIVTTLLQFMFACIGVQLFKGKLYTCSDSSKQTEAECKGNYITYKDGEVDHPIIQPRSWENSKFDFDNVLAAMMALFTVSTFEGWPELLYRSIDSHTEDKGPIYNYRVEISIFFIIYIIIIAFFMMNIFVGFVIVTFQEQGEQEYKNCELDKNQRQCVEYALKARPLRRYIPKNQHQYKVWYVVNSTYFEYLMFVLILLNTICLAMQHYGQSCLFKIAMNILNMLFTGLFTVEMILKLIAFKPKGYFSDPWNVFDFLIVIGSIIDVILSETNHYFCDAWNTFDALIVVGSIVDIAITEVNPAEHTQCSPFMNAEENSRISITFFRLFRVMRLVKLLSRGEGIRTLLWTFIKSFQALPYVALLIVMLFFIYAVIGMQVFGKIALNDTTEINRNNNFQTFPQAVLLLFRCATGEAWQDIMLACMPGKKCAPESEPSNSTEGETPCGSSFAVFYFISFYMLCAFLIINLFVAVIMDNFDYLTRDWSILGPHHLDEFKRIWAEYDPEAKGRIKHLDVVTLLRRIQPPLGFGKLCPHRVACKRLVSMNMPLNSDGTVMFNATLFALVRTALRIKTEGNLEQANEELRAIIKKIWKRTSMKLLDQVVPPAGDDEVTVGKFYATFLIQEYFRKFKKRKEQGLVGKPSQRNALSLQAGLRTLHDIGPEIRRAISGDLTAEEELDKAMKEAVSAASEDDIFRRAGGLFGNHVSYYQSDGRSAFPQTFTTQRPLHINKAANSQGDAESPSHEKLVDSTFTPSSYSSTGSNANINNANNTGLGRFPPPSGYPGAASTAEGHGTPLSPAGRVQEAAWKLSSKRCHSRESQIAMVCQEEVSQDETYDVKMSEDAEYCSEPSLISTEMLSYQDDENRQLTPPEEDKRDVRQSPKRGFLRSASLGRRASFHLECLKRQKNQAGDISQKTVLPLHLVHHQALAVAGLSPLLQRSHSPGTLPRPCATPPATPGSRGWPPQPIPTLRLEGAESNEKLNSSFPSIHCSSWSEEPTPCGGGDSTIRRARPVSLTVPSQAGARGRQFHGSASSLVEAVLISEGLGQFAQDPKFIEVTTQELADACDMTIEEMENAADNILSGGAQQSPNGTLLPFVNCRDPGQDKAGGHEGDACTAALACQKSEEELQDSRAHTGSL

Take `Cc1cc2c(OCC(CNC(C)(C)C)OC(=O)c3ccccc3)cccc2[nH]1` (stereo not drawn) [LT, 4-(2-benzoyloxy-3-tert-butylaminopropoxy)-2-methylindole]: in the assay with β-adrenoceptor, the “suppression of isoproterenol effects” value is reported as “completely or almost completely suppressed”.

With `COc1ccc(CCN(C)CCCC(C#N)(c2ccc(OC)c(OC)c2)C(C)C)cc1OC` (stereo not drawn) [Verapamil, reference compound], in assay [1], the “difference between cardiodepressant concentration and the pA2 of Ca-antagonism” value is “about 100 fold”. The Kb in assay [2] was 15.8 nM.

As for `CCOC(=O)C1=C(C)NC(C)=C(C(=O)OCC)C1c1cccc2nonc12` [compound No. 22], the coronary blood flow result in assay [3] (43 μg/kg i.v., no pretreatment) is on record as “markedly increased”. For the same compound, the “general hemodynamic parameters (acceleration of blood, cardiac output, heart rate, coronary flow) after β-blocker pretreatment” value in assay [3] (compound No. 22 43 μg/kg i.v., 60 minutes after LT 50 μg/kg i.v.) is “strikingly similar to those without pretreatment”. Further, in assay [1], the “difference between cardiodepressant concentration and the pA2 of Ca-antagonism” value was “about 10,000 fold”. Besides, the “times less cardiodepressant than Verapamil for a similar degree of calcium antagonism” value in assay [1] (relative to Verapamil) is listed as “about 100 times”. In addition, the activity at 0.444 µM in assay [4] came out at 56%. Besides, the Kb in assay [2] is 0.0316 nM.
